Assay results: US7217409B2, “Alkanoic acid derivatives” (SmithKline Beecham Corporation, priority 2000, dated 2007)

Legend:
[1] = Emitted dose and fine particle mass by Anderson Cascade Impactor stack; assay type: physicochemical; details: salmeterol xinafoate in HFA 134a, 25 μg per actuation, 10% w/w surfactant compound, aluminum canisters; beginning of use; mean of two determinations
Procedure: Data were obtained at the beginning of use of the device. Salmeterol xinafoate formulations in HFA 134a, of strength 25 μg per actuation, and 10% w/w (relative to drug) of the relevant surfactant compound of formula (I) were prepared in standard aluminum canisters. Control 1 was prepared at the same time as samples containing examples 2, 5, 6 and 7 whereas control 2 was prepared separately. The analysis of aerosol formulations using such stacks is well known to person skilled in the art. The results are presented as the mean of two determinations.
These samples also show an increase in the absolute value of the FPM fraction in most cases.

[2] = Mean particle size of salmeterol xinafoate/HFA 134a suspension by image analysis (Galai CIS-100 particle size analyser); assay type: physicochemical; details: for spread of the range of particles size: salmeterol xinafoate in HFA 134a with 10% w/w surfactant compound, versus control without surfactant; for Mean Length: salmeterol xinafoate in HFA 134a, 25 μg per actuation, 10% w/w (relative to drug) of surfactant compound, crimped glass bottles, equivalent diameter, average of 4 determinations
Procedure: Salmeterol xinafoate formulations in HFA 134a, of strength 25 μg per actuation, and 10% w/w (relative to drug) of the relevant surfactant compound of formula (I) were prepared in crimped glass bottles using salmeterol xinafoate (8.7 mg), HFA 134a (18 g) and the relevant compound (0.87 mg). The control was prepared without the addition of a surfactant. […] In this measurement, particle size is represented as the equivalent diameter of a circle of equal area to the object. The mean is the average of 4 determinations. The particle size measurement was obtained by transferring the suspensions to a pressurised cell, and video-imaging the sample under shear via a microscope objective. The equivalent diameter is defined as the diameter of a circle of equal area to the object.
The mean equivalent diameter can be weighted by number, length or volume. e.g. For three particles with equivalent diameters of x, y and z:
This is seen by the marked reduction in average particle size (“mean length”) when a compound of formula (I) is incorporated into the formulation. Futhermore the spread of the range of particles size was reduced in some cases (especially Examples 5 and 7).

Row | Structure (SMILES) | % FPM [1] [%] | FPM (fine particle mass, sum of stages 3 to 5) [1] [µg] | Total Dose Emitted [1] [µg] | Total Emitted Ex-Device [1] [µg] | spread of the range of particles size [2] | Mean Length [2] [μm]
1 | COCCOCCOCCOCCOCCOCCOCCOCCOCCOCC(=O)O [Example 7, 2,5,8,11,14,17,20,23,26,29-Decaoxahentriacontan-31-oic acid] | 38.7 | 8.5 | 21.9 | 18.4 | reduced | 28.6
2 | O=C(O)COCCOCCOCC(F)(F)F [Example 6, {[2-({2-[(2,2,2-Trifluoroethyl)oxy]ethyl}oxy)ethyl]oxy}acetic acid] | 33.2 | 7.1 | 21.4 | 17.9 |  | 23.7
3 | COCCOCCOCCOCCOCCOCCOCC(=O)O [Example 2, 2,5,8,11,14,17,20-Heptaoxadocosan-22-oic acid] | 38.8 | 8.7 | 22.4 | 18.8 |  | 27.1
4 | O=C(O)COCCOCCOCCOCCOCCOCCOCC(F)(F)F [Example 5, 23,23,23-Trifluoro-3,6,9,12,15,18,21-heptaoxatricosan-1-oic acid] | 37.2 | 8.6 | 23.0 | 19.4 | reduced | 23.8
